Assay results from patent publication US8883856B2, “Compositions and methods for the treatment of inflammatory diseases using topoisomerase inhibitors” (priority 2000, dated 2014).

Columns and labels:
caspase 3 = assay: Caspase 3 activation in neutrophils (caspACE assay system); format: cell-based, human
Excerpt: (§1) The inflammation associated with many forms of arthritis is thought to arise from the presence of large numbers of immune cells, such as neutrophils, in the synovial joints of humans. The extended inflammation associated with crystal induced arthritis arises from the interaction of neutrophils with crystals in the synovial joint. One reason the extended duration of the inflammation in this disease may be due to the inhibition of neutrophil apoptosis by crystals. This inhibition may result in the neutrophils remaining in the joint for extended periods. Compounds that overcome this crystal induced suppression of neutrophil apoptosis therefore allow the more rapid clearance of these cells from the joint with the appropriate abatement of inflammation. The process of apoptosis involves the endonuclease driven cleavage of DNA into fragments which may be visualized as a ladder of bands in an agarose gel electrophoresis experiment. Other assays that may be used include caspase 3 quantitation or measurements of cytoplasmic DNA concentration. […] Agents that inhibit caspase activation levels or reduce cytoplasmic DNA are pro-survival (potentially inflammatory) and agents that promote are pro-apoptotic and anti-inflammatory. The use of these methods and their role in neutrophil affected inflammation is described in detail in Tudan et al. J Rheumatol. 27 p 2463-72. 2000.
(§2) Methods: Agarose gel banding/laddering of 180 base pairs: Neutrophils were separated from fresh human blood by standard methods (dextran sedimentation and ficoll paque centrifugation) and suspended in buffer at a concentration of 1×10^6 cells/ml. The cells were then incubated with crystals of calcium pyrophosphate dihydrate (CPPD) for 1 hours at 37° C. The cells were then incubated with or without camptothecin (0.1 uM) for 4 hours at 37° C. Neutrophil aliquots (1×10^6 cells) from different conditions were resuspended in 480 μl of lysis buffer (0.6% SDS, 10 mM Tris, 1 mM EDTA (pH 7.0)) and after vigorous mixing were allowed to sit on ice for 20 min after addition of 120 μl of 5M NaCl. In caspase 3 and DNA fragmentation assays a milder detergent (Triton) was used to lyse only the plasma membrane of the cells so that cytoplasmic contents (caspase 3 or DNA fragments) could be assayed. Samples were sedimented at 14,000 rpm at 4° C. for 20 min. The pellet was dried and resuspended in phenol:chloroform. Four hundred fifty μl of the upper phase was added to a new tube, which was then charged with 950 μl of […] and held at −20° C. for 10 min. The DNA was sedimented at 14,000 rpm (4° C.) and carefully washed in 75% ethanol without disturbing the pellet. The DNA was dried at 37° C. and then resuspended in 20 μl sample buffer (50% TBE with 1 μl of 1 ng/ml RNase A (Pharmacia)). The samples were vortexed and allowed to stand at 37° C. for 10 min. Five μl of loading dye (20% Ficoll Paque (Pharmacia), 0.1% bromophenol blue, 0.1% xylene cyanole) was added. Electrophoresis was carried out in 2% agarose at 80 mA, and the gel was then stained with ethidium bromide (Pharmacia) and photographed under U.V. illumination.
Caspase 3 activation was assayed using a commercial kit for this enzyme (caspACE assay system, Promega Scientific) and cyotplasmic DNA was assayed using a commercial kit (Cell death detection ELISA-Boehringer—Mannheim).

[1] = Encapsulation efficiency of drug in polymer microspheres; format: physicochemical
Experimental: Camptothecin (Sigma) was dissolved in a 5% (w/v) solution of poly(L-lactic acid) (2K molecular weight, Polysciences) in various ratios of drug to polymer (from 0.5:100 to 8:100 (w/w). Ten ml of each of these solutions were pipetted into 100 ml of a 2.5% (w/v) solution of poly vinyl alcohol (PVA, mol wt 13-21K Aldrich) with over head stirring at 500 rpm. After two hours stirring the PVA/microsphere suspension was poured through 90 um then 50 um sieves to collect the 50-90 um fraction of microspheres. These spheres were then washed in distilled water three times and dried under vacuum. The dried spheres were obtained in high yields (over 50% of the initial polymer was recovered as microspheres in the 50-90 um size range). […] Encapsulation efficiency was measured by dissolving microspheres in 1 ml of dichlomethane, extracting the drug into a 60/40 (v/v) acetonitrile water mixture and analysis by visible absorbance at 370 nm. The encapsulation efficiency of the drug in the polymer varied with the initial ratio of drug to polymer with high ratios resulting in a high level of encapsulation.
Plumbagin (Sigma) was dissolved in a 5% (w/v) solution of poly (L-lactic acid) (2K molecular weight, Polysciences) to give a final ratio of drug to polymer of 1:10 (w/w). Ten ml of this solution was pipetted into 100 ml of a 2.5% (w/v) solution of poly vinyl alcohol (PVA, mol wt 13-21K Aldrich) with over head stirring at 500 rpm. After two hours stirring the PVA/microsphere suspension was poured through 90 um then 50 um sieves to collect the 50-90 um fraction of microspheres. These spheres were then washed in distilled water three times and dried under vacuum. The dried spheres were obtained in high yields with over 50% of the initial polymer being recovered in microspheres in the 50-90 um size range. The microspheres were dense yellow in colour indicating high encapsulation efficiency of the drug plumbagin. The encapsulation efficiency was measured by dissolving the microspheres in 1 ml of dichlomethane, extracting the drug into a 60/40 (v/v) acetonitrile water mixture and analysis by visible absorbance at 420 nm. The encapsulation efficiency of the drug in the polymer was 80%.
(§3) Ten ml of each solution was pipetted into 100 ml of a 2.5% (w/v) solution of poly vinyl alcohol (PVA, mol wt 13-21K Aldrich) with over head stirring at 500 rpm. After two hours stirring the PVA/microsphere suspension was poured through 90 um then 50 um sieves to collect the 50-90 um fraction of microspheres. These spheres were then washed in distilled water three times and dried under vacuum. The dried spheres were obtained in high yields (over 50% of the initial polymer was recovered as microspheres in the 50-90 um size range).
as §3, with “vacuum.” for “vacuum. The dried spheres were obtained in high yields (over 50% of the initial polymer was recovered as microspheres in the 50-90 um size range).”

neutrophils = assay: Cytoplasmic DNA fragmentation in neutrophils (Cell death detection ELISA); format: cell-based, human
Excerpt: as §1
as §2, with “The samples were vortexed and allowed to stand at 37° C. for 10 min. Five μl of loading dye (20% Ficoll Paque (Pharmacia), 0.1% bromophenol blue, 0.1% xylene cyanole) was added. Electrophoresis was carried out in 2% agarose at 80 mA, and the gel was then stained with ethidium bromide (Pharmacia) and photographed under U.V. illumination.” left out

[2] = Example 19 microspheres 50-90 um, drug to polymer 1:40 (beta-lapachone) or 1:100 (etoposide, doxorubicin)
[3] = polycaprolactone microspheres 50-90 um, drug to polymer 1:50

CC1(C)CCC2=C(O1)c1ccccc1C(=O)C2=O [beta-lapachone]
caspase 3 activation in neutrophils (caspase 3): induced an increase in the activation of caspase 3 levels
encapsulation efficiency of the drug in the polymer [1, 2]: 97%

CC[C@@]1(O)C(=O)OCc2c1cc1n(c2=O)Cc2cc3ccccc3nc2-1 [camptothecin]
caspase 3 activation in neutrophils (caspase 3): induced high levels of caspase 3 activation
cytoplasmic DNA fragments in neutrophils (neutrophils): increased the cytoplasmic levels of DNA fragments

COc1cccc2c1C(=O)c1c(O)c3c(c(O)c1C2=O)C[C@@](O)(C(=O)CO)C[C@@H]3O[C@H]1C[C@H](N)[C@H](O)[C@H](C)O1 [doxorubicin]
caspase 3 activation in neutrophils (caspase 3): induced an increase in the activation of caspase 3 levels
cytoplasmic DNA fragments in neutrophils (neutrophils): significant increase in cytoplasmic DNA
encapsulation efficiency of the drug in the polymer [1, 2]: 95%

COc1cc([C@@H]2c3cc4c(cc3[C@@H](O[C@@H]3O[C@@H]5CO[C@@H](C)O[C@H]5[C@H](O)[C@H]3O)[C@H]3COC(=O)[C@H]23)OCO4)cc(OC)c1O [etoposide]
caspase 3 activation in neutrophils (caspase 3): induced an increase in the activation of caspase 3 levels
cytoplasmic DNA fragments in neutrophils (neutrophils): significant increase in cytoplasmic DNA

CC1=CC(=O)c2ccccc2C1=O [menadione]
encapsulation efficiency of the drug in the polymer [1, 3]: 73%

CC1=CC(=O)c2c(O)cccc2C1=O [plumbagin]
encapsulation efficiency of the drug in the polymer ([1]; poly(L-lactic acid) 2K microspheres 50-90 um, drug to polymer 1:10): 80%
encapsulation efficiency of the drug in the polymer [1, 3]: 85%
